Data published in patent US20120029015A1, “Novel medical use of kynurenic acid, its precursors and derivatives” (priority 2009, published 2012).
Marks after values point to notes of the source that are not given here.

What was measured:
Format in all cases: in vivo, Wistar rats
[1] = tested on: caerulein-induced destruction of pancreatic tissue (DPT); test: Antioxidant capacity of plasma (FRAP) in caerulein-induced DPT; settings: KYNA 100 mg/kg/hr + caerulein, mean
Procedure: (§1) The experiments were performed using adult male Wistar rats. All experimental procedures were in compliance with currently accepted guidelines for care and use of animals. The study protocol was approved by the Bioethics Committee. Before the experiment, rats were given no food for 24 hours, water was available in unrestricted quantities. Destruction of pancreatic tissue (DPT) was induced by injections of caerulein (dose of 15 μg/kg/hr). Animals were randomly assigned to the following groups. […] After 6 hours from inducing DPT antioxidative effects were determined by means of measuring the ferric reducing ability of plasma (FRAP) and levels of the markers of oxidative stress: malonyldialdehyde and 4-hydroxynonenals (MDA+4-HNE). The measurement of pancreatic edema, the serum α-amylase activity and histopathological analysis of pancreas were carried out to assess the progress of the disease.

[2] = tested on: caerulein-induced destruction of pancreatic tissue (DPT); test: Plasma levels of lipid peroxidation products (MDA + 4-HNE) in caerulein-induced DPT; settings: KYNA 100 mg/kg/hr + caerulein, mean
Procedure: as §1, with “disease. In the group of animals with caerulein-induced destruction of pancreatic tissue significant increase of concentration of malonyldialdehyde (MDA) and 4-hydroxynonenals (4-HNE), two markers of oxidative stress, occurred.” for “disease.”

[3] = tested on: caerulein-induced destruction of pancreatic tissue (DPT); test: Water content of pancreatic tissue (pancreatic edema) in caerulein-induced destruction of pancreatic tissue; settings: for Water content of pancreas: 6 hours after inducing DPT, % of wet weight, mean
Procedure: as §1, with “disease. […] Kynurenic acid in the dose of 50 mg/kg/hrs was also effective (Table 1). Since kynurenic acid prevents edema induced by the pancreas damaging factor caerulein, kynurenic acid, its salts and derivatives may be used in prevention and therapy of conditions leading to injury of pancreatic tissue.” for “disease.”

[4] = tested on: caerulein-induced destruction of pancreatic tissue (DPT); test: Serum α-amylase activity in caerulein-induced DPT; settings: mean
Procedure: as §1, with “disease. The extent of the serum α-amylase elevation is roughly proportional to the degree of destruction of pancreatic tissue. In Table 3 it is shown that kynurenic acid in the dose of 100 mg/kg/hr prevents elevation of α-amylase in the serum of caerulein-treated rats. Kynurenic acid in the dose of 50 mg/kg/hrs was also effective. […]” for “disease.”

[5] = tested on: caerulein-induced destruction of pancreatic tissue (DPT); test: Histological changes in pancreatic tissue in caerulein-induced DPT; settings: KYNA 100 mg/kg/hr + caerulein; mean ± SD; scale 0-3
Procedure: as §1, with “disease. Histopathological presentation of pancreas injury consists of edema, vacuolization or necrosis (Table 2). Since in the situation of application of a pancreas damaging agent caerulein kynurenic acid in the dose of 100 mg/kg/hr prevents or diminishes edema, vacuolization, and number of necrotic foci, kynurenic acid, its salts and derivatives may be of use in prevention and therapy of conditions leading to destruction of pancreatic tissue and are characterized by such histological picture.” for “disease.”

O=C(O)c1cc(O)c2ccccc2n1 [KYNA, kynurenic acid]
FRAP (Ferric Reducing Ability of Plasma) [1]: 602.4* μM | MDA + 4-HNE plasma level [2]: 3.11* nmol/ml | Water content of pancreas ([3]; KYNA 50 mg/kg/hr infusion + caerulein): 73.03* % | Water content of pancreas ([3]; KYNA 100 mg/kg/hr infusion + caerulein): 68.22* % | Macroscopic edema of pancreas ([3]; KYNA 100 mg/kg/hr infusion + caerulein, macroscopic presentation): no edema was noted | Serum α-amylase activity ([4]; KYNA 50 mg/kg/hr + caerulein): 5262.26^#* U/l | Serum α-amylase activity ([4]; KYNA 100 mg/kg/hr + caerulein): 3495.20* U/l | Edema (0-3), histological score [5]: 1.6 ± 0.45 | Necrosis (0-3), histological score [5]: 0.0 ± 0.0 | Vacuolisation (0-3), histological score [5]: 0.8 ± 0.44
